Measured values taken from patent publication US10908141B2, “Methods and kits for detecting non-luminescent or weakly luminescent metals” (New York University, priority 2012, dated 2021).
Values joined by “and” are separate entries in the source; they are usually repeats but may differ in a detail not shown here. Identical values can stand only once.

Tests used:
[1] = Diffusivity by dynamic light scattering (DLS); format: physicochemical
[2] = in vivo; cited from earlier work
[3] = Absorption and fluorescence spectroscopy (plate reader / nanodrop); format: physicochemical
[4] = Stability of the chelate in solution over time (Tb/Gd metal exchange); format: physicochemical; conditions: 5, 30, and 60 minutes
From the text: To determine the stability of the chelate in solution as a function of time, readings were made at different time points. If there is an exchange of Tb with Gd on the sensitized chelate, then a dramatic increase in signal should be observed. The intensity of cs124-DTPA-Tb is 10000 fold higher than the equivalent concentration of cs124-DTPA-Gd.

[5] = Xylenol orange determination of free Gd3+ after chelation; format: physicochemical
Description: When xylenol orange coordinates Gd^3+ ion, absorption at 573 decreases relative to that at 433.
For determination of free Gd^3+ in solution after chelation. 3 mg xylenol orange was dissolved in 50 mM acetic acid pH 5.8, and 90 μL added to each well of a clear 96 well plate. Triplicate samples of 10 μL 10^−3M cs124-DTPA were added to each well, and increasing amounts of […] titrated in. Absorption was read at 573 and 433, against a standard of known Gd^3+ concentration.

[6] = mouse plasma, 0.1 mmol/kg via saphenous vein, bi-exponential fit

Row | Molecule | Diffusivity D [1] | Relaxivity r1 (Relaxivity r1) [M⁻¹ ms⁻¹] | Distribution half-life [2] [min] | Distribution time (manufacturer's data) [2] [min] | Elimination time (manufacturer's data) [2] [min] | Plasma clearance half-life [2] | Absorbance Amax [3] [nm] | Fluorescence Emmax [3] [nm] | Fluorescence Exmax [3] [nm] | Change of intensity over time (metal exchange between sensitized and unsensitized chelates) [4] | Relaxivity compared with DTPA-Gd (Relaxivity r1) | Free Gd3+ ion concentration ([5]; incubated with 50 mM xylenol orange) [%] | Concentration of chelated complex above which free Gd3+ is detectable ([5]; incubated with xylenol orange in 50 mM acetic acid pH 5.8) | Characteristic distribution time [6] | Elimination time [6]
1 | [Gd+3] [Gd3+, reference compound] | 8.0 × 10^−6 cm^2/s | 9.16 ± 0.96 |  |  |  |  |  |  |  |  |  |  |  |  | 
2 | O=C([O-])CN(CCN(CC(=O)[O-])CC(=O)O)CCN(CC(=O)[O-])CC(=O)O.[Gd+3] [Magnevist ®, gadolinium-diethylenetriaminepentaacetic acid] |  | 3.4 | 12 | 12.2 ± 7.8 | 96.0 ± 7.8 | approximately 81 min |  |  |  |  |  |  |  |  | 
3 | Cc1cc(=O)[nH]c2cc(N)ccc12 [cs124, carbostyril124, reference compound] |  |  |  |  |  |  | 328 | 370 | 310 |  |  |  |  |  | 
4 | carbostyril-124-diethylenetriaminepentaacetic acid-Gadolinium [cs124-DTPA-Gd] | 2.5 × 10^−6 cm^2/s | 3.32 ± 1.4 |  |  |  |  | 328 | 375 | 341 | No significant change | the same as that of DTPA-Gd | 0.06 | above 1.75 mM | 13.2 ± 0.543 min and 14 min | 92.2 ± 11.7 min and 90 min
